# Literature values in EP0349956A1, “Azacyclic compounds and their preparation und use” (NOVO NORDISK A/S, priority 1988, dated 1990).
# Read-outs that look alike come from different tables or passages of the source.
# Biological target: muscarinic receptor in the CNS
substance,measurement,setting,value
³H-Oxotremorine-M,Kd,first of three different sites labelled by ³H-Oxo (high affinity),0.0018 µM
same,Kd,second of three different sites labelled by ³H-Oxo (medium affinity),0.02 µM
same,Kd,"third of three different sites labelled by ³H-Oxo (not determined under the present conditions), read-out: affinity",3 µM
